Our source for the IC50 values is PMC5554727 (The Journal of steroid biochemistry and molecular biology, 2017).

For this assay, the target named is SULT1A1 (Homo sapiens, UniProt P50225). In words: inhibition of sulfonation of […]C-p-nitrophenol by recombinant enzyme. Type of assay: biochemical.

The structures appear in SMILES notation.

SULT1A1, sequence (P50225 whole entry): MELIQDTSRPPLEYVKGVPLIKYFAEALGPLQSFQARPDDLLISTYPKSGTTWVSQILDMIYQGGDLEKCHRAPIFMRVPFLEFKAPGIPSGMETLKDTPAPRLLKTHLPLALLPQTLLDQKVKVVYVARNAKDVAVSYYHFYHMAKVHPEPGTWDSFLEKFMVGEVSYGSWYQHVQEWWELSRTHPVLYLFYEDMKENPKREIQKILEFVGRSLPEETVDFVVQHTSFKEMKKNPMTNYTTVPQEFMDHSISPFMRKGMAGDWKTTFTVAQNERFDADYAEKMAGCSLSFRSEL

`Cc1ccc(-c2cc(C(F)(F)F)nn2-c2ccc(S(N)(=O)=O)cc2)cc1` [celecoxib]: the IC50 (usually the concentration that inhibits the measured activity by half) is 2100 nM.
